The target of one assay is T1, RgGH98.
T1 construct: gene RGna_RS10325; 44–946 aa (N-term GBLD, catalytic domain, C-term domain)
The assay is described as follows: crystal structure ([…] Å), ITC and STD NMR. The class given is binding, Mediterraneibacter gnavus.

Assay [1] deals with T2, Ulex Europaeus Agglutinin I (UEA I) (Ulex europaeus, UniProt P22972).
T2 sequence (P22972 1-243): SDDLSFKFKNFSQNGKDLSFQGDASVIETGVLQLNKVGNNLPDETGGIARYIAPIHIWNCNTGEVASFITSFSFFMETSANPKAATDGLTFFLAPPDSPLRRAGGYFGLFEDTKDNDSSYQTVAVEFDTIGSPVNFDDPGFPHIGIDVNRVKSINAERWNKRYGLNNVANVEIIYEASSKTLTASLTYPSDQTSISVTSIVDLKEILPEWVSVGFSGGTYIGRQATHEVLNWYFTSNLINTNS
The assay is described as follows: ITC (control lectin). The class given is binding.

The values that follow come from publication PMC8730463, “The human gut symbiont Ruminococcus gnavus shows specificity to blood group A antigen during mucin glycan foraging: Implication for niche colonisation in the gastrointestinal tract” (PLoS Biology, 2021).

pKd: −log10 of the molar value.

As a reminder, the pKd is the Kd on a negative log10 scale, so that one unit is a factor of ten. A high value points to a low Kd. For `CC(=O)N[C@H]1[C@@H](O[C@H]2[C@@H](O)[C@@H](CO)O[C@@H](O[C@H]3[C@H](O)[C@@H](NC(C)=O)C(O)O[C@@H]3CO)[C@@H]2O[C@@H]2O[C@@H](C)[C@@H](O)[C@@H](O)[C@@H]2O)O[C@H](CO)[C@H](O)[C@@H]1O` (some centres unmarked) [BgA II, blood group A tetrasaccharide type II], the pKd at RgGH98 is 3.31.
Compound `CC(=O)N[C@H]1C(O)O[C@H](CO)[C@@H](O[C@@H]2O[C@H](CO)[C@H](O)[C@H](O)[C@H]2O[C@@H]2O[C@@H](C)[C@@H](O)[C@@H](O)[C@@H]2O)[C@@H]1O` (some centres unmarked) [BgH, blood group H trisaccharide] showed a pKd in assay [1] of 4.99.
